In paper PMC5007552, “The hVps34‐SGK3 pathway alleviates sustained PI3K/Akt inhibition by stimulating mTORC1 and tumour growth” (The EMBO Journal, 2016):
Where “and” joins values, the source holds several entries; their conditions need not be identical. Equal entries are not always repeated.

Test system: ZR-75-1 cells
Experiment: NanoString human kinome mRNA quantification
Format: cell-based
Description: Human mRNAs were hybridised to NanoString human kinome and control code sets, then subjected to quantification using NanoString software. […] To permit data compaction, and simple kinome‐wide comparisons, the fold changes are log2 transformed. […] Cell pellets were resuspended at a concentration of ~6,500 cells/μl in RLT buffer (Qiagen). […] For total copy numbers, triplicate normalised count values were averaged, and to calculate fold induction, means were divided by triplicate mean values from matched DMSO controls. P‐values were calculated using unpaired t‐test (GraphPad Prism software) by employing treated and control count data for each kinase mRNA.

SMILES: NC1(c2ccc(-c3nc4ccn5c(=O)[nH]nc5c4cc3-c3ccccc3)cc2)CCC1 [MK-2206]
- RYK normalised counts (RYK mRNA, single replicates): 1148.59 and 1139.68 and 1120.05
- SBK1 normalised counts, average (SBK1 mRNA, average of 3 replicates): 361.503
- SBK1 normalised counts (SBK1 mRNA, single replicates): 371.43 and 336.09 and 376.99
- SBK2 normalised counts, average (SBK2 mRNA, average of 3 replicates): 1.323
- SBK2 normalised counts (SBK2 mRNA, single replicates): 1.48 and 1 and 1.49
- SCYL1 normalised counts, average (SCYL1 mRNA, average of 3 replicates): 556.557
- SCYL1 normalised counts (SCYL1 mRNA, single replicates): 560.49 and 556.75 and 552.43
- SCYL2 normalised counts, average (SCYL2 mRNA, average of 3 replicates): 1373.8
- SCYL2 normalised counts (SCYL2 mRNA, single replicates): 1302.21 and 1441.13 and 1378.05
- SCYL3 normalised counts, average (SCYL3 mRNA, average of 3 replicates): 629.833
- SCYL3 normalised counts (SCYL3 mRNA, single replicates): 586.85 and 664.48 and 638.17
- SGK1 normalised counts, average (SGK1 mRNA, average of 3 replicates): 34.7533
- SGK1 normalised counts (SGK1 mRNA, single replicates): 45.11 and 34.64 and 24.51
- SGK2 normalised counts, average (SGK2 mRNA, average of 3 replicates): 5.517
- SGK2 normalised counts (SGK2 mRNA, single replicates): 6.93 and 3.37 and 6.25
- SGK3 normalised counts, average (SGK3 mRNA, average of 3 replicates): 345.983
- SGK3 normalised counts (SGK3 mRNA, single replicates): 345.97 and 349.13 and 342.85
- SGK110 normalised counts, average (SGK110 mRNA, average of 3 replicates): 1
- SGK110 normalised counts (SGK110 mRNA, single replicates): 1
- SGK223 normalised counts, average (SGK223 mRNA, average of 3 replicates): 114.123
- SGK223 normalised counts (SGK223 mRNA, single replicates): 115.1 and 115.43 and 111.84
- SGK494 normalised counts (SGK494 mRNA, single replicates): 270.07 and 276.17
- SIK1 normalised counts, average (SIK1 mRNA, average of 3 replicates): 97.7933
- SIK1 normalised counts (SIK1 mRNA, single replicates): 92.37 and 96.32 and 104.69
- SIK2 normalised counts, average (SIK2 mRNA, average of 3 replicates): 489.35
- SIK2 normalised counts (SIK2 mRNA, single replicates): 465.05 and 503.76 and 499.24
- SIK3 normalised counts, average (SIK3 mRNA, average of 3 replicates): 191.663
- SIK3 normalised counts (SIK3 mRNA, single replicates): 213.27 and 183.2 and 178.52
- SLK normalised counts, average (SLK mRNA, average of 3 replicates): 781.283
- SLK normalised counts (SLK mRNA, single replicates): 777.73 and 819.98 and 746.14
- SNRK normalised counts (SNRK mRNA, single replicates): 215.99 and 274.58
- SPEG normalised counts, average (SPEG mRNA, average of 3 replicates): 35.4833
- SPEG normalised counts (SPEG mRNA, single replicates): 26.93 and 40.72 and 38.8
- SRC normalised counts, average (SRC mRNA, average of 3 replicates): 1093.13
- SRC normalised counts (SRC mRNA, single replicates): 1115.87 and 1045.86 and 1117.67
- SRMS normalised counts, average (SRMS mRNA, average of 3 replicates): 3.94
- SRMS normalised counts (SRMS mRNA, single replicates): 1.48 and 2.5 and 7.84
- SRPK1 normalised counts, average (SRPK1 mRNA, average of 3 replicates): 1401.66
- SRPK1 normalised counts (SRPK1 mRNA, single replicates): 1439.46 and 1380.32 and 1385.2
- SRPK3 normalised counts, average (SRPK3 mRNA, average of 3 replicates): 7.937
- SRPK3 normalised counts (SRPK3 mRNA, single replicates): 8.75 and 11.19 and 3.87
- STK3 normalised counts, average (STK3 mRNA, average of 3 replicates): 371.33
- STK3 normalised counts (STK3 mRNA, single replicates): 336.89 and 406.46 and 370.64
- STK10 normalised counts, average (STK10 mRNA, average of 3 replicates): 433.017
- STK10 normalised counts (STK10 mRNA, single replicates): 449.6 and 416.89 and 432.56
- STK11 normalised counts, average (STK11 mRNA, average of 3 replicates): 800.127
- STK11 normalised counts (STK11 mRNA, single replicates): 804.09 and 773.94 and 822.35
- STK16 normalised counts, average (STK16 mRNA, average of 3 replicates): 424.973
- STK16 normalised counts (STK16 mRNA, single replicates): 430.51 and 422.97 and 421.44
- STK17A normalised counts, average (STK17A mRNA, average of 3 replicates): 614.85
- STK17A normalised counts (STK17A mRNA, single replicates): 623.21 and 605.4 and 615.94
- STK17B normalised counts, average (STK17B mRNA, average of 3 replicates): 149.18
- STK17B normalised counts (STK17B mRNA, single replicates): 155.09 and 144.1 and 148.35
- STK19 normalised counts, average (STK19 mRNA, average of 3 replicates): 156.807
- STK19 normalised counts (STK19 mRNA, single replicates): 145.09 and 157.13 and 168.2
- STK24 normalised counts (STK24 mRNA, single replicates): 2291.16
- STK25 normalised counts, average (STK25 mRNA, average of 3 replicates): 893.797
- STK25 normalised counts (STK25 mRNA, single replicates): 868.63 and 899.91 and 912.85
- STK31 normalised counts, average (STK31 mRNA, average of 3 replicates): 2.42
- STK31 normalised counts (STK31 mRNA, single replicates): 2.39 and 1 and 3.87
- STK32A normalised counts, average (STK32A mRNA, average of 3 replicates): 1.637
- STK32A normalised counts (STK32A mRNA, single replicates): 1 and 1.63 and 2.28
- STK32B normalised counts, average (STK32B mRNA, average of 3 replicates): 1.427
- STK32B normalised counts (STK32B mRNA, single replicates): 1 (2×) and 2.28
- STK32C normalised counts, average (STK32C mRNA, average of 3 replicates): 205.643
- STK32C normalised counts (STK32C mRNA, single replicates): 188.41 and 219.8
- STK33 normalised counts, average (STK33 mRNA, average of 3 replicates): 1.163
- STK33 normalised counts (STK33 mRNA, single replicates): 1 (2×) and 1.49
- STK35 normalised counts, average (STK35 mRNA, average of 3 replicates): 342.25
- STK35 normalised counts (STK35 mRNA, single replicates): 336.89 and 343.04 and 346.82
- STK38L normalised counts, average (STK38L mRNA, average of 3 replicates): 664.543
- STK38L normalised counts (STK38L mRNA, single replicates): 674.11 and 657.53 and 661.99
- STK38 normalised counts, average (STK38 mRNA, average of 3 replicates): 732.567
- STK38 normalised counts (STK38 mRNA, single replicates): 697.74 and 733.98 and 765.98
- STK39 normalised counts, average (STK39 mRNA, average of 3 replicates): 817.837
- STK39 normalised counts (STK39 mRNA, single replicates): 763.19 and 842.57 and 847.75
- Normalised counts (single replicate) (VRK3 mRNA): 720.47 and 725.29 and 752.49
- Normalised counts (single replicate) (WEE2 mRNA): 1.48 and 1.63 and 1.49
- Normalised counts (single replicate) (WNK1 mRNA): 3425.55 and 3529.59 and 3400.03
- Normalised counts (single replicate) (WNK2 mRNA): 345.97 and 335.23 and 337.29
- Normalised counts (single replicate) (WNK3 mRNA): 30.56 and 30.3 and 37.21
- Normalised counts (single replicate) (WNK4 mRNA): 5.11 and 1 and 4.66
- Normalised counts (single replicate) (YES1 mRNA): 2809.27 and 2957.96 and 2943.56
- Normalised counts (single replicate) (YSK4 mRNA): 1 (2×) and 1.49
- Normalised counts (single replicate) (ZAK mRNA): 35.11 and 50.28 and 49.91
- Normalised counts (single replicate) (ZAP70 mRNA): 1 (2×) and 1.63
- rank of SGK3 mRNA among AGC kinases (ZR-75-1, DMSO vehicle 29th): 12
